{
  "source": "patent US11091437B2",
  "about": "“Aryl isonitriles as a new class of antimicrobial compounds” (Purdue Research Foundation, priority 2015, dated 2021)",
  "key": {"MRSA": {"test_system": "MRSA", "experiment": "MIC by broth microdilution against MRSA, VISA and VRSA strains", "type": "cell-based, Staphylococcus aureus", "conditions": "for antimicrobial activity (in words): MRSA strains tested", "description": "The bacterial growth inhibiting activity of these synthetic analogs of hit compound 1 were subsequently evaluated (FIG. 3).\nThe minimum inhibitory concentration (MIC) of each compound and linezolid was determined against eight different strains of MRSA, VISA, and VRSA using a modified version of the broth microdilution method, outlined by the CLSI. Institute CaLS, Methods for Dilution Antimicrobial Susceptibility Tests for Bacteria That Grow Aerobically—Seventh Edition: Approved Standard M7-A7. 7 ed. Wayne, Pa. 2011. The same analysis was performed with vancomycin against the VISA and VRSA strains tested. A bacterial suspension (˜1 Å˜10^5 CFU/mL) was prepared in Tryptic soy broth (TSB) and then transferred to a microtiter plate. Each agent tested was added (in triplicate) to wells in the first row of the plate and then serially diluted downward."}, "[1]": {"test_system": "murine macrophage (J774) cell line", "experiment": "MTS toxicity assay against mammalian cells"}, "Caco-2 cell monolayer": {"test_system": "Caco-2 cell monolayer", "conditions": "human"}, "physchem": {"experiment": "physchem", "conditions": "aqueous buffer, kinetic from dmso stock"}, "[2]": {"conditions": "human, microsomes, 1 h"}, "[3]": {"test_system": "S. aureus exhibiting resistance to vancomycin (VRS2)", "experiment": "MIC by broth microdilution against vancomycin-resistant S. aureus", "type": "cell-based", "conditions": "Staphylococcus aureus; vancomycin-resistant clinical isolate VRS2"}, "MRSA USA300": {"test_system": "MRSA USA300", "experiment": "whole-cell screening of in house small molecules", "type": "cell-based, Staphylococcus aureus", "conditions": "MRSA USA300, whole-cell screening hit", "description": "A whole-cell screening of a small number of in house generated small molecules with diverse structural skeletons (about 250 molecules) has been conducted against MRSA USA300 with the aim to identify compounds with novel skeletons to target antibiotic drug resistance. […] Marconi, G. G. et al., J. Antibiot, 1978, 31, 27-32; Mo, S. et al., J. Nat. Prod. 2009, 72, 894-899; Raveh, A. et al., J. Nat. Prod. 2007, 70, 196-201; Sugawara, T. et al., J. Antibiot, 1997, 50, 944-948; Fujiwara, A. et al., Agric. Biol. Chem. 1982, 46, 1803-1809, Marquez, J. A. et al., J. Antibiot, 1983, 36, 1101-1108. The novel structural skeleton of compound 1 as an antibacterial compound against drug resistant strains prompted further study of these types of isonitrile compounds. Herein is reported the chemical synthesis, structure-activity relationship study, and evaluation of the antibacterial performance of compound 1 and closely related analogs against several clinically-relevant MRSA and VRSA strains."}, "in vitro": {"experiment": "in vitro", "conditions": "human, Caco-2"}, "[4]": {"conditions": "Staphylococcus aureus, broth microdilution, over the MRSA strains tested, read-out: MIC against MRSA"}},
  "note": "Read-outs that look alike come from different tables or passages of the source.",
  "data": [
    {"smiles": "[C-]#[N+]c1ccccc1/C=C/c1ccc(CCCC)cc1", "note": "[Compound 24, (E)-1-(4-butylstyryl)-2-isocyanobenzene]", "values": [
      {"measurement": "MIC", "setting": "MRSA; Staphylococcus aureus, MRSA, read-out: MIC against most MRSA strains tested", "value": "> 128", "unit": "µM"}
    ]},
    {"smiles": "[C-]#[N+]c1ccccc1/C=C/c1ccccc1", "note": "[Compound 13, (E)-1-isocyano-2-styrylbenzene]", "values": [
      {"measurement": "concentration up to which not toxic to mammalian cells", "setting": "[1]; J774 cells", "value": 64, "unit": "µM"},
      {"measurement": "MIC", "setting": "MRSA; [4]", "value": "≥ 2", "unit": "µM"},
      {"measurement": "reduction in the MIC against MRSA relative to compound 1", "setting": "MRSA; removal of the ethyl group of 1", "value": "two-to-eight"},
      {"measurement": "apparent permeability Papp, apical (A) to basolateral (B)", "setting": "Caco-2 cell monolayer", "value": 0.0, "unit": "cm/sec"},
      {"measurement": "apparent permeability Papp, basolateral to apical", "setting": "Caco-2 cell monolayer", "value": 0.0, "unit": "cm/sec"},
      {"measurement": "solubility", "setting": "physchem", "value": "1 to 100", "unit": "µM"},
      {"measurement": "parent compound remaining after one hour", "setting": "[2]", "value": 24, "unit": "%"},
      {"measurement": "parent compound remaining after one hour, NADPH not present", "setting": "[2]", "value": 51, "unit": "%"}
    ]},
    {"smiles": "[C-]#[N+]c1ccc(C)cc1-c1ccc(C(F)(F)F)cc1", "note": "[Compound 50, 2-isocyano-5-methyl-4′(trifluoromethyl)-1,1′-biphenyl]", "values": [
      {"measurement": "antimicrobial activity (in words)", "setting": "MRSA; broth microdilution", "value": "loss in antimicrobial activity"}
    ]},
    {"smiles": "[C-]#[N+]c1ccccc1/C=C(\\CC)c1ccc(C(F)(F)F)cc1", "note": "[Compound 10, (E)-1-isocyano-2-(2-(4-(trifluoromethyl)phenyl)but-1-en-1-yl)benzene]", "values": [
      {"measurement": "MIC", "setting": "[3]", "value": "2 to 16", "unit": "µM"}
    ]},
    {"smiles": "[C-]#[N+]c1ccccc1/C=C/c1cccc(F)c1", "note": "[Compound 19, (E)-1-(3-fluorostyryl)-2-isocyanobenzene]", "values": [
      {"measurement": "toxicity to J774 cells at 64 μM", "setting": "[1]", "value": "toxic"}
    ]},
    {"smiles": "[C-]#[N+]c1ccc(/C=C/c2ccncc2)cc1", "note": "[Compound 35, (E)-4-(4-isocyanostyryl)pyridine]", "values": [
      {"measurement": "activity relative to ortho- and meta-substituted 33 and 34", "setting": "MRSA; all the strains tested", "value": "much more active"},
      {"measurement": "MIC", "setting": "[3]", "value": "2 to 16", "unit": "µM"}
    ]},
    {"smiles": "[C-]#[N+]c1ccccc1/C=C/c1cccnc1", "note": "[Compound 30, (E)-3-(2-isocyanostyryl)pyridine]", "values": [
      {"measurement": "toxicity to J774 cells at 128 μM", "setting": "[1]", "value": "not toxic"},
      {"measurement": "antimicrobial activity (in words)", "setting": "MRSA; broth microdilution", "value": "reduced antimicrobial activities"}
    ]},
    {"smiles": "[C-]#[N+]c1ccccc1/C=C/c1ccc([N+](=O)[O-])cc1", "note": "[Compound 25, (E)-1-isocyano-2-(4-nitrostyryl)benzene]", "values": [
      {"measurement": "toxicity to J774 cells at 32 μM", "setting": "[1]; 32 μM", "value": "toxic"},
      {"measurement": "toxicity to J774 cells at 64 μM", "setting": "[1]", "value": "toxic"},
      {"measurement": "MIC", "setting": "[3]", "value": "2 to 16", "unit": "µM"}
    ]},
    {"smiles": "[C-]#[N+]c1ccccc1CCc1ccccc1", "note": "[Compound 53, 1-isocyano-2-phenethylbenzene]", "values": [
      {"measurement": "potency relative to compound 13", "setting": "MRSA; all strains tested except VISA NRS1", "value": "less potent"},
      {"measurement": "activity against MRSA USA100, MRSA USA300, MRSA NRS119 and VISA NRS1", "setting": "MRSA; strains USA100, USA300, NRS119, VISA NRS1", "value": "active"}
    ]},
    {"smiles": "[C-]#[N+]c1ccccc1/C=C/c1ccccn1", "note": "[Compound 27, (E)-2-(2-isocyanostyryl)pyridine]", "values": [
      {"measurement": "antimicrobial activity (in words)", "setting": "MRSA; broth microdilution", "value": "reduced antimicrobial activities"}
    ]},
    {"smiles": "[C-]#[N+]c1ccccc1/C=C(\\CC)c1cccc(C(F)(F)F)c1", "note": "[Compound 12]", "values": [
      {"measurement": "toxicity to J774 cells at 64 μM", "setting": "[1]", "value": "toxic"}
    ]},
    {"smiles": "[C-]#[N+]c1ccccc1C=C1CCCCC1", "note": "[Compound 26, 1-(cyclohexylidenemethyl)-2-isocyanobenzene]", "values": [
      {"measurement": "activity against MRSA USA300, MRSA USA500 and MRSA NRS119", "setting": "MRSA; strains USA300, USA500, NRS119", "value": "inactive"}
    ]},
    {"smiles": "[C-]#[N+]c1ccccc1/C=C/c1cccc(OC)c1", "note": "[Compound 15, (E)-1-isocyano-2-(3-methoxystyryl)benzene]", "values": [
      {"measurement": "toxicity to J774 cells at 128 μM", "setting": "[1]", "value": "not toxic"}
    ]},
    {"smiles": "[C-]#[N+]c1ccc(/C=C/c2cccnc2)cc1", "note": "[Compound 32, (E)-3-(4-isocyanostyryl)pyridine]", "values": [
      {"measurement": "MIC", "setting": "[3]", "value": "2 to 16", "unit": "µM"}
    ]},
    {"smiles": "[C-]#[N+]c1ccccc1/C=C(\\CC)c1ccccc1", "note": "[Compound 1, (E)-1-isocyano-2-(2-phenylbut-1-en-1-yl)benzene]", "values": [
      {"measurement": "MIC", "setting": "MRSA; [4]", "value": "8 to 64", "unit": "µM"},
      {"measurement": "concentration inhibiting bacterial growth", "setting": "MRSA USA300", "value": 32, "unit": "µM"}
    ]},
    {"smiles": "CC(=O)CC(c1ccccc1)c1c(O)c2ccccc2oc1=O", "note": "(stereo not shown) [warfarin]", "values": [
      {"measurement": "Papp B→A", "setting": "in vitro", "value": 27, "unit": "×10⁻⁶ cm/s"}
    ]},
    {"smiles": "[C-]#[N+]c1ccccc1/C=C/c1ccc(C)cc1", "note": "[Compound 23, (E)-1-isocyano-2-(4-methylstyryl)benzene]", "values": [
      {"measurement": "MIC", "setting": "MRSA; [4]", "value": "4 to 64", "unit": "µM"}
    ]},
    {"smiles": "[C-]#[N+]c1ccccc1CP(=O)(OCC)OCC", "note": "[Compound 4a, diethyl (2-isocyanobenzyl)phosphonate]", "values": [
      {"measurement": "MIC", "setting": "MRSA; broth microdilution, over the MRSA strains tested, read-out: MIC against MRSA", "value": "> 128", "unit": "µM"}
    ]},
    {"smiles": "[C-]#[N+]c1ccc(/C=C/c2ccccc2)cc1", "note": "[Compound 37, (E)-1-isocyano-4-styrylbenzene]", "values": [
      {"measurement": "toxicity to J774 cells at 128 μM", "setting": "[1]", "value": "not toxic"},
      {"measurement": "activity relative to ortho-substituted compound 13", "setting": "MRSA; MSSA (NRS72) and MRSA USA500", "value": "slight improvement"}
    ]},
    {"smiles": "[C-]#[N+]c1ccccc1/C=C/c1ccncc1", "note": "[Compound 33, (E)-4-(2-isocyanostyryl)pyridine]", "values": [
      {"measurement": "antimicrobial activity (in words)", "setting": "MRSA; broth microdilution", "value": "reduced antimicrobial activities"}
    ]}
  ]
}
